Assay results reported in ChEMBL document CHEMBL1157209, “QSAR study on a novel series of 8-azaadenine analogues proposed as A1 adenosine receptor antagonists” (Eur J Med Chem, 2008).

Target: T1, Adenosine receptor A1 (Bos taurus, UniProt P28190)
T1 sequence (P28190 whole entry): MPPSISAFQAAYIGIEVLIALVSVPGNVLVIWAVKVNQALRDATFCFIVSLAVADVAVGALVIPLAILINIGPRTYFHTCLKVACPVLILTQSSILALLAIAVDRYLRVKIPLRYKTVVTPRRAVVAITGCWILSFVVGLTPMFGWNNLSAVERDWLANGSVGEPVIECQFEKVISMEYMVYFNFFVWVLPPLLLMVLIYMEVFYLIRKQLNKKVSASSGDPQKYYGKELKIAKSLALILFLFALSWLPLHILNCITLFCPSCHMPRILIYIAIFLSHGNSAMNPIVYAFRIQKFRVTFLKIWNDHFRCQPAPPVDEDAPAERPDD
Test: Binding affinity to bovine adenosine A1 receptor

Row | SMILES | Ki
1 | c1ccc(Cn2nnc3c(NC4CCCCC4)nc(-c4ccccc4)nc32)cc1 | 1.6 nM
2 | OC1CCC(Nc2nc(-c3ccccc3)nc3c2nnn3Cc2ccccc2Cl)CC1 (stereo not drawn) | 3.1 nM
3 | O[C@H]1CCCC[C@@H]1Nc1nc(-c2ccccc2)nc2c1nnn2Cc1ccccc1 | 10.3 nM
4 | OC1CCC(Nc2nc(-c3ccccc3)nc3c2nnn3Cc2ccccc2F)CC1 (stereo not drawn) | 1.85 nM
5 | COc1ccc(C(=O)Nc2nc(-c3ccccc3)nc3c2nnn3Cc2ccccc2F)cc1 | 21.9 nM
6 | COc1ccc(C(=O)Nc2nc(-c3ccccc3)nc3c2nnn3Cc2ccccc2Cl)cc1 | 20 nM
7 | COc1ccc(C(=O)Nc2nc(-c3ccccc3)nc3c2nnn3Cc2ccccc2)cc1 | 3.24 nM
8 | OC1CCC(Nc2nc(-c3ccccc3)nc3c2nnn3Cc2ccccc2)CC1 (stereo not drawn) | 2.7 nM
